Assay [1] concerns the target T1, Lp-PLA2 in human plasma (Homo sapiens, UniProt Q13093).
T1 construct: from tissue; host or cells: pooled human plasma
T1 sequence (Q13093 22-441): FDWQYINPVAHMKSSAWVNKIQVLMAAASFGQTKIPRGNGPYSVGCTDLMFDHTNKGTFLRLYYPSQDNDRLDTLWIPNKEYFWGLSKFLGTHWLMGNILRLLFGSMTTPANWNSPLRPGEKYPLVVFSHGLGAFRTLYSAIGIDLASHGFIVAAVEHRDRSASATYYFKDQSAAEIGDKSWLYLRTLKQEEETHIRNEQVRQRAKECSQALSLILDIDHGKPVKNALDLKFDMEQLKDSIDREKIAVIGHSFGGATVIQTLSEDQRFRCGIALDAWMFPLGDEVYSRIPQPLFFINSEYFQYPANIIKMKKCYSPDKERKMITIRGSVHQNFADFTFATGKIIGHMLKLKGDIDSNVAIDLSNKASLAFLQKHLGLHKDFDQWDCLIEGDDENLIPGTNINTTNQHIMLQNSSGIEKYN
The experiment in a line: (3a) Lp-PLA2 human plasma Thio-PAF assay. The conditions noted are these: (3a) Thio-PAF assay, pooled human plasma; Examples 1-265 and 413-430 were tested here; read-out: pIC50 in the Lp-PLA2 human plasma assay (converted). It counts as biochemical. In short, it runs like this:
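Pooled human plasma preincubated 30 min with serially diluted compound, then given 2-thio-PAF substrate with CPM and NEM in 50 mM HEPES pH 7.4, 150 mM NaCl, 1 mM CHAPS. Reaction quenched with TFA after 2 min; CPM thiol-adduct fluorescence read at ex 380/em 485 after 40 min; pIC50 reported.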

Assay [2] has as its target T2, recombinant human Lp-PLA2 (Homo sapiens, UniProt Q13093).
T2 sequence (Q13093 22-441): T1 sequence (Q13093 22-441)
The experiment in a line: (1a) PED6 assay, recombinant human Lp-PLA2 (rhLp-PLA2). Conditions: Examples 1-167 and 413-430 were tested here, one experiment or average of multiple experiments, read-out: rhLp-PLA2 (pIC50) (converted). It counts as biochemical. In short, it runs like this:
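PED6 (2 μM final after 1:1 addition of 4 μM stock) cleavage by rhLp-PLA2 (4 nM working solution) in 50 mM HEPES pH 7.4, 150 mM NaCl, 1 mM CHAPS; compounds preincubated with enzyme 30 minutes, reaction 20 min at room temperature. Fluorescence at ex 480/em 540; pIC50 from curve fit.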

These results are taken from US11999746B2, “Compounds” (GlaxoSmithKline Intellectual Property Development Limited, priority 2014, dated 2024).

In the case of `O=c1nc(OCc2cccc(F)c2)cc2n1C[C@@H]1CCOCN21` [Example E138, (S)-3-((3-fluorobenzyl)oxy)-8,9,9a,10-tetrahydropyrimido[6′,1′:2,3]imidazo[1,5-c][1,3] oxazin-1(6H)-one], the IC50 in assay [1] was at most 10000 nM; in assay [2] it was at most 100 nM.

For the compound `O=c1nc(OCc2cc(F)c(F)c(F)c2)cc2n1C[C@@H]1CCCN21` [Example E73, (S)-3-((3,4,5-trifluorobenzyl)oxy)-7,8,8a,9-tetrahydropyrrolo[1,2′:3,4]imidazo[1,2-c] pyrimidin-1(6H)-one], the IC50 in assay [1] was at most 10000 nM; in assay [2], at most 100 nM.

Consider `O=c1nc(OCc2cc(F)c(Oc3ccnc(C(F)(F)F)c3)c(F)c2)cc2n1C[C@@H]1COCCN21` [Example E119, (R)-7-((3,5-difluoro-4-((2-(trifluoromethyl)pyridin-4-yl)oxy)benzyl)oxy)-3,4, 11, 11a-tetra hydropyrimido[6′,1′:2,3]imidazo[5,1-c][1,4]oxazin-9(1H)-one], for which the IC50 was at most 100 nM in assay [1] and at most 1 nM in assay [2].

Take `O=c1nc(OCc2cc(F)c(F)c(F)c2)cc2n1C[C@H]1COCN21` [Example E146, (S)-6-((3,4,5-trifluorobenzyl)oxy)-10,10a-dihydro-1H-oxazolo[3′,4′:3,4]imidazo[1,2-c] pyrimidin-8(3H)-one]: the IC50 in assay [1] and in assay [2] was at most 100 nM in each case.

Regarding `O=c1nc(OCc2ccc(Oc3ccnc(C(F)(F)F)c3)c(F)c2)cc2n1C[C@@H]1CCCCN21` [Example E40, (S)-3-((3-Fluoro-4-((2-(trifluoromethyl)pyridin-4-yl)oxy)benzyl)oxy)-6,7,8,9,9a,10-hexahydro-1H-pyrido[1′,2′:3,4]imidazo[1,2-c]pyrimidin-1-one], the IC50 in assay [1] was at most 100 nM; in assay [2] it was at most 1 nM.

For the compound `O=c1nc(OCc2cc(F)c(F)c(F)c2)cc2n1C[C@@H]1CCCCN21` [Example E32, (S)-3-((3,4,5-Trifluorobenzyl)oxy)-6,7,8,9,9a,10-hexahydro-1H-pyrido[1′,2′:3,4]imidazo[1,2-c]pyrimidin-1-one], the IC50 in assay [1] is at most 10000 nM; in assay [2] it was at most 100 nM.

Regarding `O=c1nc(OCc2cc(F)cc(F)c2)cc2n1C[C@H]1CCCCN21` [Example E53, (R)-3-((3,5-Difluorobenzyl)oxy)-6,7,8,9,9a,10-hexahydro-1H-pyrido[1′,2′:3,4]imidazo[1,2-c] pyrimidin-1-one], the values for the IC50 in assay [1] and in assay [2] were at most 10000 nM and at most 100 nM, respectively.

In the case of `Cc1cc(Oc2c(F)cc(COc3cc4n(c(=O)n3)C[C@H]3CCCN43)cc2F)ccn1` [Example E106, (R)-3-((3,5-difluoro-4-((2-methylpyridin-4-yl)oxy)benzyl)oxy)-7,8,8a,9-tetrahydro pyrrolo[1′,2′:3,4]imidazo[1,2-c]pyrimidin-1(6H)-one], the IC50 is at most 10000 nM in assay [1] and at most 100 nM in assay [2].

In the case of `CN1c2cc(OCc3cccc(F)c3)nc(=O)n2CC12CCCC2` [Example 418], the IC50 in assay [1] and in assay [2] was at most 100 nM in each case.

Regarding `O=c1nc(OCc2cc(F)c(Oc3ccnc(C(F)(F)F)c3)c(F)c2)cc2n1CC1CCCN21` (stereo not drawn) [Example E75, 3-((3,5-difluoro-4-((2-(trifluoromethyl)pyridin-4-yl)oxy)benzyl)oxy)-7,8,8a, 9-tetrahydro pyrrolo[1′, 2′:3, 4]imidazo[1,2-c]pyrimidin-1(6H)-one], the IC50 in assay [1] was at most 100 nM; in assay [2] it was at most 1 nM.

`O=c1nc(OCc2cc(F)c(Oc3cnc(C(F)(F)F)nc3)c(F)c2)cc2n1CC1COCCN21` (stereo not drawn) [Example E110, 7-((3,5-Difluoro-4-((2-(trifluoromethyl)pyrimidin-5-yl)oxy)benzyl)oxy)-3,4,11,11a-tetra hydropyrimido[6′,1′:2,3]imidazo[5,1-c][1,4]oxazin-9(1H)-one]: the IC50 in assay [1] is at most 100 nM; in assay [2] it was 0.501 nM.

As to `O=c1nc(OCc2cc(F)c(OC3CCCC(F)(F)C3)c(F)c2)cc2n1CC1CCCN21` (stereo not drawn) [Example E92, 3-((4-((3,3-difluorocyclohexyl)oxy)-3,5-difluorobenzyl)oxy)-7,8,8a,9-tetrahydropyrrolo[1′,2′:3,4]imidazo[1,2-c]pyrimidin-1(6H)-one], the IC50 in assay [1] was at most 10000 nM; in assay [2], at most 100 nM.

With `O=c1nc(OCc2cc(F)c(OC3CCC(F)(F)C3)c(F)c2)cc2n1C[C@@H]1CCCN21` (stereo partly drawn) [Example E95, (S)-3-((4-((3,3-difluorocyclopentyl)oxy)-3,5-difluorobenzyl)oxy)-7,8,8a,9-tetrahydropyrrolo[1′,2′:3,4]imidazo[1,2-c]pyrimidin-1(6H)-one], the IC50 is at most 10000 nM in assay [1] and at most 100 nM in assay [2].

As for `CCn1cc(Oc2c(F)cc(COc3cc4n(c(=O)n3)CC3COCCN43)cc2F)cn1` (stereo not drawn) [Example E109, 7-((4-((1-Ethyl-1H-pyrazol-4-yl)oxy)-3,5-difluorobenzyl)oxy)-3,4,11,11a-tetrahydropyrimido[6′,1′:2,3]imidazo[5,1-c][1,4]oxazin-9(1H)-one], the IC50 in assay [1] is at most 100 nM; in assay [2], 1.26 nM.

As to `O=c1nc(OCc2cc(F)c(OC3CN(CCC(F)(F)F)C3)c(F)c2)cc2n1CC1CCCN21` (stereo not drawn) [Example E96, 3-((3,5-Difluoro-4-((1-(3,3,3-trifluoropropyl)azetidin-3-yl)oxy)benzyl)oxy)-7,8,8a,9-tetrahy dropyrrolo[1′,2′:3,4]imidazo[1,2-c]pyrimidin-1(6H)-one], the values for the IC50 in assay [1] and in assay [2] were at most 10000 nM and at most 100 nM, respectively.

`Cn1cc(Oc2c(F)cc(COc3cc4n(c(=O)n3)C[C@@H]3CCOCN43)cc2F)cn1` [Example E136, (S)-3-((3,5-difluoro-4-((1-methyl-1H-pyrazol-4-yl)oxy)benzyl)oxy)-8,9,9a,10-tetrahydropyrimdo[6′,1′:2,3]imidazo[1,5-c][1,3]oxazin-1(6H)-one]: the IC50 in assay [1] is at most 10000 nM; in assay [2] it was at most 100 nM.

`CN1c2cc(OCc3cccc(F)c3F)nc(=O)n2CC12CCCCC2` [Example 425, 7′4(2,3-difluorobenzyhoxy)-1-methyl-1H-spiro[cyclohexane-1,2′-imidazo[1,2-c]pyrimidin]-5′(3′H)-one]: the IC50 in assay [1] was at most 10000 nM; in assay [2], at most 100 nM.

`O=c1nc(OCc2cc(F)c(Oc3cccc(C(F)(F)F)c3)c(F)c2)cc2n1C[C@@H]1CCCN21` [Example E83, (S)-3-((3,5-difluoro-4-(3-(trifluoromethyl)phenoxy)benzyl)oxy)-7,8,8a,9-tetrahydropyrrolo[1′,2′:3, 4]imidazo[1,2-c]pyrimidin-1(6H)-one]: the values for the IC50 in assay [1] and in assay [2] were at most 100 nM and at most 1 nM, respectively.

For the compound `O=c1nc(OCc2cc(F)c(F)c(F)c2)cc2n1CC1CCCCN21` (stereo not drawn) [Example E2, 3-((3,4,5-Trifluorobenzyl)oxy)-6,7,8,9,9a,10-hexahydro-1H-pyrido[1′,2′:3,4]imidazo[1,2-c] pyrimidin-1-one], the IC50 in assay [1] and in assay [2] was at most 100 nM throughout.

As to `O=c1nc(OCc2ccc(Oc3ccc(F)c(C(F)(F)F)c3)nc2)cc2n1C[C@@H]1CCCN21` [Example E84, (S)-3-((6-(4-fluoro-3-(trifluoromethyl)phenoxy)pyridin-3-yl)methoxy)-7,8,8a,9-tetrahydro pyrrolo[1′,2′:3,4]imidazo[1,2-c]pyrimidin-1(6H)-one], the values for the IC50 in assay [1] and in assay [2] were at most 10000 nM and at most 100 nM, respectively.

`O=c1nc(OCc2ccc(Oc3ccc(C(F)(F)F)nc3)c(F)c2)cc2n1CC1CCCCN21` (stereo not drawn) [Example E38, 3-((3-Fluoro-4-((6-(trifluoromethyl)pyridin-3-yl)oxy)benzyl)oxy)-6,7,8,9,9a,10-hexahydro-1H-pyrido[1′,2′:3,4]imidazo[1,2-c]pyrimidin-1-one]: the values for the IC50 in assay [1] and in assay [2] were at most 100 nM and at most 1 nM, respectively.

Consider `CC(C)n1cc(Oc2c(F)cc(COc3cc4n(c(=O)n3)CC3CCCN43)cc2F)cn1` (stereo not drawn) [Example E65, 3-((3,5-Difluoro-4-((1-isopropyl-1H-pyrazol-4-yl)oxy)benzyl)oxy)-7,8,8a, 9-tetrahydro pyrrolo[1′,2′:3,4]imidazo[1,2-c]pyrimidin-1(6H)-one], for which the IC50 is at most 10000 nM in assay [1] and at most 100 nM in assay [2].

As for `N#Cc1cc(COc2cc3n(c(=O)n2)CC2CCCCN32)ccc1Oc1cncc(C(F)(F)F)c1` (stereo not drawn) [Example E10, 5-(((1-Oxo-6,7,8,9,9a,10-hexahydro-1H-pyrido[1′,2′:3,4]imidazo[1,2-c]pyrimidin-3-yl)oxy)methyl)-2-((5-(trifluoromethyl)pyridin-3-yl)oxy)benzonitrile], the figures for the IC50 in assay [1] and in assay [2] were at most 100 nM and at most 1 nM, respectively.

For the compound `O=c1nc(OCc2ccc(F)c(F)c2)cc2n1CC1CCCCN21` (stereo not drawn) [Example E5, 3-((3,4-Difluorobenzyl)oxy)-6,7,8,9,9a,10-hexahydro-1H-pyrido[1′,2′:3,4]imidazo[1,2-c] pyrimidin-1-one], the IC50 in assay [1] and in assay [2] was at most 100 nM each time.
